PubChem BioAssay AID256 (DTP/NCI, 2004)
Where “and” joins values, the source holds several entries; their conditions need not be identical. Equal entries are not always repeated. Inconclusive results and toxic doses are left out.

Test system: CD2F1 mice, L1210 leukemia ip, survival T/C
Experiment: NCI In Vivo Anticancer Drug Screen. Data for tumor model L1210 Leukemia (intraperitoneal) in CD2F1 (CDF1) mice
Details: higher = longer survival
In short: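 Antitumor effect is scored in animals hosting a serially transplanted tumor. Values compare compound-dosed animals against vehicle-only controls as a simple quotient.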

[1] = endpoint: mean survival time, dose: 100.0 mg/kg/injection, schedule: Q04DX003 (ip), vehicle: saline with Tween-80
[2] = endpoint: mean survival time, dose: 200.0 mg/kg/injection, schedule: Q04DX003 (ip), vehicle: saline with Tween-80
[3] = endpoint: mean survival time, dose: 400.0 mg/kg/injection, schedule: Q04DX003 (ip), vehicle: saline with Tween-80
[4] = endpoint: mean survival time, dose: 50.0 mg/kg/injection, schedule: Q01DX009 (ip), vehicle: Klucel (hydroxypropylcellulose) (HPC)
[5] = endpoint: mean survival time, dose: 100.0 mg/kg/injection, schedule: Q01DX009 (ip), vehicle: Klucel (hydroxypropylcellulose) (HPC)
[6] = endpoint: mean survival time, dose: 200.0 mg/kg/injection, schedule: Q01DX009 (ip), vehicle: Klucel (hydroxypropylcellulose) (HPC)
[7] = endpoint: mean survival time, dose: 12.5 mg/kg/injection, schedule: Q01DX009 (ip), vehicle: saline with Tween-80
[8] = endpoint: mean survival time, dose: 25.0 mg/kg/injection, schedule: Q01DX009 (ip), vehicle: saline with Tween-80
[9] = endpoint: mean survival time, dose: 25.0 mg/kg/injection, schedule: Q04DX003 (ip), vehicle: saline with Tween-80
[10] = endpoint: mean survival time, dose: 50.0 mg/kg/injection, schedule: Q01DX009 (ip), vehicle: saline with Tween-80
[11] = endpoint: mean survival time, dose: 50.0 mg/kg/injection, schedule: Q04DX003 (ip), vehicle: saline with Tween-80
[12] = endpoint: mean survival time, dose: 100.0 mg/kg/injection, schedule: Q01DX009 (ip), vehicle: saline
[13] = endpoint: mean survival time, dose: 100.0 mg/kg/injection, schedule: Q01DX009 (ip), vehicle: saline with Tween-80
[14] = endpoint: mean survival time, dose: 200.0 mg/kg/injection, schedule: Q01DX009 (ip), vehicle: saline with Tween-80
[15] = endpoint: mean survival time, dose: 50.0 mg/kg/injection, schedule: Q01DX001 (ip), vehicle: saline with Tween-80
[16] = endpoint: mean survival time, dose: 100.0 mg/kg/injection, schedule: Q01DX001 (ip), vehicle: saline with Tween-80
[17] = endpoint: mean survival time, dose: 200.0 mg/kg/injection, schedule: Q01DX001 (ip), vehicle: saline with Tween-80
[18] = endpoint: mean survival time, dose: 400.0 mg/kg/injection, schedule: Q01DX009 (ip), vehicle: saline with Tween-80
[19] = endpoint: mean survival time, dose: 100.0 mg/kg/injection, schedule: Q04DX003 (ip), vehicle: saline
[20] = endpoint: mean survival time, dose: 200.0 mg/kg/injection, schedule: Q04DX003 (ip), vehicle: saline

SMILES: O=C(Cl)CCc1cc(Cl)no1
- T/C (endpoint: mean survival time, dose: 25.0 mg/kg/injection, schedule: Q04DX003 (ip), vehicle: olive oil, sesame oil, peanut oil): 96 % of control
- T/C (endpoint: mean survival time, dose: 50.0 mg/kg/injection, schedule: Q04DX003 (ip), vehicle: olive oil, sesame oil, peanut oil): 96 % of control
- T/C (endpoint: mean survival time, dose: 100.0 mg/kg/injection, schedule: Q04DX003 (ip), vehicle: olive oil, sesame oil, peanut oil): 103 % of control
- T/C (endpoint: mean survival time, dose: 200.0 mg/kg/injection, schedule: Q04DX003 (ip), vehicle: olive oil, sesame oil, peanut oil): 94 % of control
- T/C (endpoint: mean survival time, dose: 400.0 mg/kg/injection, schedule: Q04DX003 (ip), vehicle: olive oil, sesame oil, peanut oil): 103 % of control

SMILES: CNC(=S)N(C1CCCCC1)C1CCCCC1
- T/C [1]: 111 % of control
- T/C [2]: 96 % of control
- T/C [3]: 94 % of control

SMILES: COC(=O)CCC1CCCC(CCC(=O)OC)C1=O (configuration not stated)
- T/C (endpoint: mean survival time, dose: 100.0 mg/kg/injection, schedule: Q04DX003 (ip), vehicle: Klucel (hydroxypropylcellulose) (HPC)): 87 % of control
- T/C (endpoint: mean survival time, dose: 200.0 mg/kg/injection, schedule: Q04DX003 (ip), vehicle: Klucel (hydroxypropylcellulose) (HPC)): 94 % of control
- T/C (endpoint: mean survival time, dose: 400.0 mg/kg/injection, schedule: Q04DX003 (ip), vehicle: Klucel (hydroxypropylcellulose) (HPC)): 92 % of control

SMILES: CCOC(=O)C1(C(=O)OCC)CCC(OCC)N1C(=O)c1cc2c(cc1[N+](=O)[O-])OCO2 (configuration not stated)
- T/C [4]: 97 % of control
- T/C [5]: 101 % of control
- T/C [6]: 97 % of control

SMILES: COc1ccc(/C=N/NC(=O)c2ccccc2)cc1OC
- T/C (endpoint: mean survival time, dose: 12.5 mg/kg/injection, schedule: Q01DX009 (ip), vehicle: other): 98 % of control
- T/C (endpoint: mean survival time, dose: 25.0 mg/kg/injection, schedule: Q01DX009 (ip), vehicle: other): 105 % of control
- T/C (endpoint: mean survival time, dose: 50.0 mg/kg/injection, schedule: Q01DX009 (ip), vehicle: other): 105 % of control
- T/C (endpoint: mean survival time, dose: 100.0 mg/kg/injection, schedule: Q01DX009 (ip), vehicle: other): 107 % of control
- T/C (endpoint: mean survival time, dose: 200.0 mg/kg/injection, schedule: Q01DX009 (ip), vehicle: other): 107 % of control

SMILES: NC(=O)c1c(F)c(F)c(Oc2c(F)c(F)c(Oc3c(F)c(F)c(C(N)=O)c(F)c3F)c(F)c2F)c(F)c1F
- T/C [7]: 103 % of control
- T/C (endpoint: mean survival time, dose: 12.5 mg/kg/injection, schedule: Q04DX003 (ip), vehicle: saline with Tween-80): 101 % of control
- T/C [8]: 100 % of control
- T/C [9]: 101 % of control
- T/C [10]: 101 % of control
- T/C [11]: 98 % of control

SMILES: O=C1Cc2ccccc2O1
- T/C (endpoint: mean survival time, dose: 25.0 mg/kg/injection, schedule: Q01DX009 (ip), vehicle: saline): 93 % of control
- T/C (endpoint: mean survival time, dose: 50.0 mg/kg/injection, schedule: Q01DX009 (ip), vehicle: saline): 96 % of control
- T/C [12]: 100 % of control
- T/C (endpoint: mean survival time, dose: 200.0 mg/kg/injection, schedule: Q01DX009 (ip), vehicle: saline): 97 % of control

SMILES: O=C(Nc1ncccn1)Nc1cc([N+](=O)[O-])ccc1F
- T/C [4]: 93 % of control
- T/C [5]: 96 % of control
- T/C [6]: 98 % of control

SMILES: CCCC/C=C\C(=O)OCC
- T/C [10]: 104 % of control
- T/C [13]: 101 % of control
- T/C [14]: 104 % of control

SMILES: O=NN(CCCl)C(=O)NC1CCN(Cc2ccccc2)CC1
- T/C (endpoint: mean survival time, dose: 12.5 mg/kg/injection, schedule: Q01DX001 (ip), vehicle: saline with Tween-80): 123 % of control
- T/C [15]: 271 % of control
- T/C [16]: 379 % of control

SMILES: [C-]#[O+].[C-]#[O+].[C-]#[O+].[C-]#[O+].[C-]#[O+].[C-]#[O+].[W]
- T/C [1]: 95 % of control
- T/C [2]: 97 % of control
- T/C [3]: 101 % of control

SMILES: CC(=O)Nc1ccc(SCCCc2c(N)nc(N)nc2N)cc1
- T/C [16]: 100 % of control
- T/C [17]: 100 % of control

SMILES: O=C(O)c1c[nH]c2ccc([N+](=O)[O-])cc2c1=O
- T/C (endpoint: mean survival time, dose: 50.0 mg/kg/injection, schedule: Q01DX001 (ip), vehicle: Klucel (hydroxypropylcellulose) (HPC)): 104 % of control
- T/C (endpoint: mean survival time, dose: 100.0 mg/kg/injection, schedule: Q01DX001 (ip), vehicle: Klucel (hydroxypropylcellulose) (HPC)): 120 % of control
- T/C [16]: 93 % of control
- T/C [17]: 89 % of control
- T/C (endpoint: mean survival time, dose: 400.0 mg/kg/injection, schedule: Q01DX001 (ip), vehicle: saline with Tween-80): 86 % of control

SMILES: c1ccc(-c2n[nH]c3ccccc23)cc1
- T/C (endpoint: median survival time, dose: 50.0 mg/kg/injection, schedule: Q04DX002 (ip), vehicle: saline with Tween-80): 100 % of control
- T/C (endpoint: median survival time, dose: 100.0 mg/kg/injection, schedule: Q04DX002 (ip), vehicle: saline with Tween-80): 100 % of control
- T/C (endpoint: median survival time, dose: 200.0 mg/kg/injection, schedule: Q04DX002 (ip), vehicle: saline with Tween-80): 100 % of control

SMILES: Oc1ccc(SCc2ccc(NCc3ccccc3)cc2)cc1
- T/C (endpoint: mean survival time, dose: 12.5 mg/kg/injection, schedule: Q01DX009 (ip), vehicle: DMSO): 95 % of control
- T/C [7]: 99 % of control
- T/C (endpoint: mean survival time, dose: 25.0 mg/kg/injection, schedule: Q01DX009 (ip), vehicle: DMSO): 97 % of control
- T/C [8]: 97 % of control
- T/C (endpoint: mean survival time, dose: 50.0 mg/kg/injection, schedule: Q01DX009 (ip), vehicle: DMSO): 97 % of control
- T/C [10]: 103 % of control
- T/C (endpoint: mean survival time, dose: 100.0 mg/kg/injection, schedule: Q01DX009 (ip), vehicle: DMSO): 92 % of control
- T/C [13]: 104 % of control
- T/C [14]: 101 % of control
- T/C [18]: 101 % of control

SMILES: O=c1[nH][nH]c(=O)c2c1oc1c(=O)[nH][nH]c(=O)c12
- T/C (endpoint: mean survival time, dose: 25.0 mg/kg/injection, schedule: Q01DX001 (ip), vehicle: saline with Tween-80): 104 % of control
- T/C [15]: 92 % of control

SMILES: CCOc1nc2nc[nH]c(=O)c2cc1C#N
- T/C (endpoint: mean survival time, dose: 12.5 mg/kg/injection, schedule: Q04DX002 (ip), vehicle: saline with Tween-80): 90 % of control
- T/C (endpoint: mean survival time, dose: 25.0 mg/kg/injection, schedule: Q04DX002 (ip), vehicle: saline with Tween-80): 93 % of control
- T/C (endpoint: mean survival time, dose: 50.0 mg/kg/injection, schedule: Q04DX002 (ip), vehicle: saline with Tween-80): 104 % of control
- T/C [16]: 107 % of control
- T/C [17]: 95 % of control

SMILES: O=[N+]([O-])c1ccc(Cl)c(P(=O)(O)c2cc([N+](=O)[O-])ccc2Cl)c1
- T/C (endpoint: mean survival time, dose: 50.0 mg/kg/injection, schedule: Q04DX003 (ip), vehicle: saline): 100 % of control
- T/C [19]: 101 % of control
- T/C [20]: 100 % of control

SMILES: Cc1nc2cc3ccccc3cc2n1C1OC(CO)C(O)C1O (configuration not stated)
- T/C (endpoint: median survival time, dose: 26.5 mg/kg/injection, schedule: Q01DX005 (ip), vehicle: saline with Tween-80): 92 % of control
- T/C (endpoint: median survival time, dose: 53.0 mg/kg/injection, schedule: Q01DX005 (ip), vehicle: saline with Tween-80): 103 % of control
- T/C (endpoint: median survival time, dose: 106.0 mg/kg/injection, schedule: Q01DX005 (ip), vehicle: saline with Tween-80): 93 % of control
- T/C (endpoint: median survival time, dose: 212.0 mg/kg/injection, schedule: Q01DX005 (ip), vehicle: saline with Tween-80): 88 % of control

SMILES: O=C1CCCc2c1[nH]c1ccccc21
- T/C [13]: 94 % of control
- T/C [14]: 104 % of control
- T/C [18]: 102 % of control

SMILES: OCC(F)(F)F
- T/C [12]: 123 % of control
- T/C [1]: 108 % of control
- T/C [2]: 110 % of control
- T/C [3]: 115 % of control

SMILES: CCC1=[N+](C)c2ccccc2C1(C)C
- T/C [19]: 104 % of control

SMILES: CC1(C)C2CCC(I)(C2)C1O (configuration not stated)
- T/C [11]: 101 % of control
- T/C [1]: 101 % of control
- T/C [2]: 101 % of control

SMILES: O=C(Nc1ccccc1)c1ccc(Cl)c([N+](=O)[O-])c1
- T/C [8]: 95 % of control
- T/C [9]: 86 % of control
- T/C [10]: 97 % of control
- T/C [11]: 89 % of control
- T/C [13]: 100 % of control
- T/C [1]: 94 % of control and 101 % of control

SMILES: CNP1(N(C)C)=NP(NC)(N(C)C)=NP(NC)(N(C)C)=N1 (configuration not stated)
- T/C [19]: 98 % of control
- T/C [20]: 98 % of control

SMILES: N#CC12OC1(C#N)C(=O)C=CC2=O (configuration not stated)
- T/C (endpoint: mean survival time, dose: 6.25 mg/kg/injection, schedule: Q01DX001 (ip), vehicle: saline): 104 % of control
- T/C (endpoint: mean survival time, dose: 12.5 mg/kg/injection, schedule: Q01DX001 (ip), vehicle: saline): 89 % of control
- T/C (endpoint: mean survival time, dose: 25.0 mg/kg/injection, schedule: Q01DX001 (ip), vehicle: saline): 93 % of control
